What was measured:
[1] = Carboni et al., Farmaco, Ed. Sci., 1973; cited from earlier work
[2] = tested on: antigen induced broncho-constriction in sensitized guinea pigs; experiment: Inhibition of anaphylactic bronchospasm in sensitized guinea pigs (ovalbumin challenge); type: in vivo, guinea pig; settings: 2 hours before ovalbumin challenge, vs vehicle-treated control
Method: The compounds of this invention may be employed as anti-allergy agents in the treatment of, for example, asthma, allergic or seasonal rhinitis, and/or chronic bronchitis. The anti-allergy method of this invention is identified by tests which measure a compound's inhibition of anaphylactic bronchosoasm in sensitized guinea pigs having antigen induced broncho-constriction.
In one such test procedure, male Hartley guinea pigs (250-300 g) are sensitized with 5 mg ovalbumin injected i.p. and 5 mg injected s.c. in 1 ml saline on day 1 and 5 mg ovalbumin injected i.p. on day 4. The sensitized animals are used 3-4 weeks later at which time they weigh 450-500 g.
The sensitized guinea pigs are fasted overnight and the following morning are anesthetized with 0.9 ml/kg i.p. of dialurethane (0.1 g/ml diallybarbituric acid, 0.4 g/ml ethylurea and 0.4 g/ml urethane). The trachea are cannulated and the animals are ventilated by a Harvard® rodent respirator at 50 strokes/minute with a stroke volume of 5 ml. A side arm to the tracheal cannula is connected to a pressure transducer (Harvard) to obtain a continuous measure of intratracheal pressure which is recorded on a polygraph (Harvard). The jugular vein is cannulated for the i.v. administration of substances. The animals are challenged with antigen (0.5% ovalbumin) as an aerosol generated from a DeVilbiss® Model 65 ultrasonic nebulizer and delivered through the tracheal cannula for 30 seconds. Bronchoconstriction is measured as the peak increase in intratracheal pressure occurring within 5 minutes after antigen challenge.
The sensitized guinea pigs are injected i.v. with 1 mg/kg propranolol, 5 mg/kg indomethacin and 2 mg/kg mepyramine given together in a volume of 1 ml/kg. Fifteen minutes later the animals are challenged with nebulized ovalbumin. Test compounds are administered orally 2 hours before challenge with ovalbumin. Suppression of anaphylactic bronchospasm is expressed as a percent inhibition of the peak increase in intratracheal pressure by comparison to a vehicle-treated control group.

[3] = tested on: reverse passive Arthus reaction in the pleural cavity of rats; experiment: Reverse passive Arthus reaction in the pleural cavity of rats (Myers et al.); type: in vivo; settings: Rattus norvegicus, po; pleural fluid
Method: Another procedure for testing for acute anti-inflammatory activity measures the reverse passive Arthus reaction in the pleural cavity of rats as described in Myers et al., Inflammation, Vol. 9, No. 1, 1985, pp. 91-98. Compound A provided an ED50 value (fluid) of about 5.0 mg/kg p.o. in such procedure.

[4] = tested on: GVHR splenomegaly in C57 B1/6XA/J(F6AF1) male mice; experiment: Graft vs. host reaction (GVHR), spleen weight; type: in vivo, mouse; settings: 100 mg/kg orally for 10 days; compared to untreated animals
Method: To induce a GVHR, C57 B1/6XA/J(F6AF1) male mice were injected intravenously with parental (C57B/6J) spleen and lymph node cells. 3-(2-Hydroxyethyl)-1-phenyl-1,8-naphthyridin-2(1H)-one (Compound A) was then administered orally for 10 days beginning on the day prior to the cell transfer. On the day following the last treatment, the animals were sacrificed, and their spleens were excised and weighed. The enlargement of the spleen of the host is a result of a GVHR. To some extent it is the host's own cells which infiltrate and enlarge the spleen although they do this because of the presence of graft cells reacting against the host. The amount of spleen enlargement, splenomegaly, is taken as a measure of the severity of the GVHR.
In carrying out the GVHR the animal in the experimental group is injected with parental cells, cells of the same species but of different genotype, which cause a weight increase of the spleen. […] The effectiveness of the compounds administered to the mice in the experimental group is measured by comparing the spleen weight of the untreated and treated GVH animal with that of the syngeneic control. Compound A in this test procedure reduced spleen weight by 92% at a dose of 100 mg/kg as compared to the untreated animals.

[5] = tested on: spleen weight of BDF1 mice; experiment: Splenic atrophy, decrease in spleen weight; type: in vivo; settings: Mus musculus, oral, seven consecutive days
Method: The immunosuppressive activity of the compounds may also be shown by a decrease in spleen weight after dosing BDF1 mice orally with the drug for seven (7) consecutive days. The mice are sacrificed on the eighth day. The percent decrease in spleen weight is measured for each dosage level. In this procedure, Compound A provided an ED30 of less than 25 mg/kg.

[6] = tested on: Reversed Passive Arthus Response in the right rear paw of rats; experiment: Reversed Passive Arthus Response (RPAR), rat paw volume; type: in vivo; settings: 25 mg/kg p.o. once daily for 3 days
Method: Male Lewis inbred albino rats weighing 180-200 grams obtained from Charles River Breeding Laboratories are used in these experiments. The rats are housed 3 animals/cage and food and water are allowed ad libitum. The animals are numbered 1-3 in each cage and color marked for identification purposes.
All reagents and drugs are prepared just prior to the study. Crystallized and lyophilized bovine serum albumin (BSA), available from Sigma Chemical Company, is solubilized without shaking in cold, sterile, pyrogen-free saline (10 mg/ml). Lyophilized anti-bovine serum albumin (IgG fraction), obtained from Cappel Laboratories, is suspended in sterile distilled water and diluted with cold, pyrogen-free saline (PFS) just prior to use. […]
Groups of animals (6/group) are dosed with drug in MC by gavace once daily for 3 days. […] The volume of mercury displaced is converted to weight and recorded. This value is considered to be the control reading for the animal. Paw volumes are subsequently recorded with a plethysmograph during the development of the inflammation at 2 and 4 hours post-challenge.
Results are expressed by the chance in paw volume (Δ paw volume) from the control reading for each animal to that recorded 2 and 4 hours post-challenge. […] Differences from control in drug-treated groups are expressed as percent change from control are determined.

O=c1ccc2ccc(OCc3ccccc3)nc2n1Cc1ccccc1 [1-benzyl-7-benzyloxy-[1,8]naphthyridin-2-one]
antibacterial activity [1]: inactive

O=c1c(CCO)cc2cccnc2n1-c1ccccc1 [Compound A, 3-(2-Hydroxyethyl)-1-phenyl-1,8-naphthyridin-2(1H)-one]
% Inhibition of anaphylactic bronchospasm (peak increase in intratracheal pressure) ([2]; dose p.o. 5 mg/kg): 78% | ED50 [3]: ~5 mg/kg | reduction of spleen weight [4]: 92% | ED30 [5]: < 25 mg/kg

COCCOc1c(C)c2cccnc2n(-c2ccccc2)c1=O [Compound C]
% Inhibition of anaphylactic bronchospasm (peak increase in intratracheal pressure) ([2]; dose p.o. 5 mg/kg): 25% | % inhibition (Δ paw volume) after 2 hours ([6]; 2 hours post-challenge): 74% | % inhibition (Δ paw volume) after 4 hours ([6]; 4 hours post-challenge): 36%

O=c1c(CCO)cc2cccnc2n1-c1cccc(Cl)c1 [B]
% Inhibition of anaphylactic bronchospasm (peak increase in intratracheal pressure) ([2]; dose p.o. 2 mg/kg): 79%

Source: US5037826A, “1-substituted naphthyridine and pyridopyrazine derivatives” (Schering Corporation, priority 1986, dated 1991)
